Among the data in paper PMC5933782, “Molecular structures of cdc2-like kinases in complex with a new inhibitor chemotype” (PLoS ONE, 2018) are GI50 and IC50 values, retold here.

In assay [1] the test system is RC-124 healthy human kidney cells. The assay is described as follows: crystal violet proliferation assay. Conditions: 96 h exposure, triplicate. In kind it is cell-based. The protocol: (§1) For experiments with RC-124 cells, microtiter plates had been pretreated in the following way: 30 μL of a sterilized gelatine solution (1.5% (m/V)) were added to each well of flat bottom 96-well plates, the plates were covered with their lids, incubated for 1h at 37°C, the excess solution was removed, the wells were washed with PBS 7.4 pH, and the new cell-culture medium was added.
(§2) The antiproliferative effects were determined according to a routinely used method. In short: a volume of 100 μL of HT-29 cells (2565 cells/mL), MDA-MB-231 cells (4120 cells/mL), MCF-7 cells (4840 cells/mL) or RC-124 cells (1460 cells/mL) was transferred into the wells of 96-well plates (note: for RC-124 pretreated plates were used, see above) and incubated at 37°C/5% CO2 for 72 h (MCF-7, MDA-MB-231, RC-124) or 48 h (HT-29). Stock solutions of 8c in DMSO were prepared and diluted with the respective cell culture medium to graded concentrations (final concentration of […]: 0.1% v/v). […] Results were calculated as the mean values of three independent experiments.

For assay [2], the system named is MDA-MB-231 breast cancer cells. The assay is described as follows: crystal violet proliferation assay. The conditions noted are these: Homo sapiens, 96 h exposure, triplicate. In kind it is cell-based. The method, then:
as §1, §2

Assay [3] deals with HT-29 colon carcinoma cells. Kind of assay: crystal violet proliferation assay. The assay is classed as cell-based. Conditions: Homo sapiens, 72 h exposure, triplicate. The protocol:
as §1, §2

Assay [4] relates to MCF-7 breast carcinoma cells. The assay is described as follows: crystal violet proliferation assay. In kind it is cell-based. Conditions: Homo sapiens, MCF7, 96 h exposure, duplicate. The method, then:
as §1, §2

The target of assay [5] is T1, DYRK3 (Homo sapiens, UniProt O43781).
T1 sequence (O43781 1-588): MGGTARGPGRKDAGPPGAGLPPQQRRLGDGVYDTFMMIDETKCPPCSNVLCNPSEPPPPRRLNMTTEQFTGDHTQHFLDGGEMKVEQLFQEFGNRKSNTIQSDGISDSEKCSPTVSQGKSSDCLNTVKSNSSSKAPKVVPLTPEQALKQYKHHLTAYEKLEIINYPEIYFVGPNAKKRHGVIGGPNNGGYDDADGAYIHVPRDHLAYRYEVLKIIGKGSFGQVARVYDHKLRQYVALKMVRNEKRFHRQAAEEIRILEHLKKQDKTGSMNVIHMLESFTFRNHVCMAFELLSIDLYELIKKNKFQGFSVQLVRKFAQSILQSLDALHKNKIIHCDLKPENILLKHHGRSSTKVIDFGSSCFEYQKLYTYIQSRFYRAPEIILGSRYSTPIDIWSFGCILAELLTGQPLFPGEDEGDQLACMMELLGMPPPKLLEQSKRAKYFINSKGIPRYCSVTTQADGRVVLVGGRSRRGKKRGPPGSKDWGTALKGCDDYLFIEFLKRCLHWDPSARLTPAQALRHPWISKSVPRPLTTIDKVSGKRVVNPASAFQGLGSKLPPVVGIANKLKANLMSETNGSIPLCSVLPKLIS
Kind of assay: radiometric protein kinase assay. The conditions noted are these: 15 μmol/L ATP; read-out: IC50 DYRK 3. The assay is classed as biochemical.

For assay [6], the target named is T2, CDK2/cyclin A (Homo sapiens, UniProt P24941).
T2 construct: made in house
The assay is described as follows: radiometric protein kinase assay. The assay is classed as biochemical. The conditions noted are these: 15 μmol/L ATP; read-out: IC50 CDK2/cyclinA.

Assay [7] concerns the target CLK1 (Mus musculus, UniProt P22518). The assay is described as follows: radiometric protein kinase assay.
Description: Buffer A: 10 mM MgCl2, 1 mM EGTA, 1 mM DTT, 25 mM Tris-HCl pH 7.5, 50 μg heparin/mL. Buffer C: 60 mM β-glycerophosphate, 15 mM p-nitrophenylphosphate, 25 mM MOPS (pH 7.2), 15 mM EGTA, 15 mM MgCl2, 1 mM DTT, 1 mM sodium vanadate, 1 mM phenylphosphate.
Controls were performed with appropriate dilutions of DMSO. The GS-1, CKS, CDK7/9 tide and RS peptide substrates were obtained from Proteogenix (Oberhausbergen, France).
CDK1/cyclin B (M phase starfish oocytes, native), CDK2/cyclin A and CDK5/p25 (human, recombinant) were prepared as previously described [33]. […] ATP (3,000 Ci/mmol; 10 mCi/mL) in a final volume of 30 μL. After 30 min incubation at 30°C, the reaction was stopped by harvesting onto P81 phosphocellulose supernatant (Whatman) using a FilterMate harvester (Packard) and washing in 1% phosphoric acid. Scintillation fluid was added and the radioactivity measured in a Packard counter.
(§4) All data points for construction of dose response curves were recorded in triplicate.
Assay [8] addresses T3, CDK5/p25 (Homo sapiens, UniProt Q00535).
T3 construct: made in house
The assay is described as follows: radiometric protein kinase assay. The assay is classed as biochemical. The conditions noted are these: 15 μmol/L ATP.

The subject of assay [9] is NCI-H460. Kind of assay: NCI cancer cell line screening. The assay is classed as cell-based. Conditions: Homo sapiens; NCI-H460, Non-Small Cell Lung Cancer. The method, then:
(§3) Being the most promising compound in terms of CLK1 inhibitory potency and selectivity, KuWal151 (8c) was tested in the National Cancer Institute cancer cell line screening on 57 tumor cell lines of different tissue origin [45]. With only a few exceptions, KuWal151 inhibited the growth of most cell lines in submicromolar concentrations. In Table 2 the cancer cell line inhibition data is listed with the expression rates of SPF45 and CLK1 as indicated in the Expression Atlas database (https://www.ebi.ac.uk/gxa/home). Apparently the cell lines with high levels of CLK1 encoding RNA are inhibited over average. […] However, the available data are not sufficient to construe a clear relationship between the expression levels of the putative target CLK1 and sensitivity of the cell lines against 8c. The same holds true for SPF45, an important substrate of CLK1 involved in splicing which is found to be overexpressed in many cancer cell lines. […] The lack of a straight relationship between CLK1 and/or SPF45 expression levels on the one hand and sensitivity against the CLK1 inhibitor 8c on the other hand may have various reasons, e.g. different uptake rates of the inhibitor by the cells or alternative intracellular targets. For verification of the results from the NCI screening, which is based on the in situ fixation of cells followed by staining with the protein-binding dye sulforhodamin B [47, 48], 8c was also tested on two cell lines of the NCI panel (HT-29 and MDA-MB-231) in a crystal violet assay.

Assay [10] deals with SNB-75. The assay is described as follows: NCI cancer cell line screening. In kind it is cell-based. The conditions noted are these: Homo sapiens; SNB-75, CNS Cancer. The protocol:
as §3

Assay [11] relates to SK-MEL-5. Kind of assay: NCI cancer cell line screening. The assay is classed as cell-based. Conditions: Homo sapiens; SK-MEL-5, Melanoma. The protocol:
as §3

The subject of assay [12] is TK-10. The assay is described as follows: NCI cancer cell line screening. The assay is classed as cell-based. Conditions: Homo sapiens; TK-10, Renal Cancer. The method, then: as §3
Assay [13] has as its system T-47D. Kind of assay: NCI cancer cell line screening. The assay is classed as cell-based. The conditions noted are these: Homo sapiens, T47D, Breast Cancer. The protocol:
as §3

Assay [14] relates to OVCAR-4. Kind of assay: NCI cancer cell line screening. The conditions noted are these: Homo sapiens; OVCAR-4, Ovarian Cancer. In kind it is cell-based. The method, then:
as §3

Assay [15] has as its system NCI-H226. The assay is described as follows: NCI cancer cell line screening. Conditions: Homo sapiens; NCI-H226, Non-Small Cell Lung Cancer. The assay is classed as cell-based. The method, then:
as §3

In assay [16] the test system is MOLT-4. Kind of assay: NCI cancer cell line screening. The conditions noted are these: Homo sapiens; MOLT-4, Leukemia. The assay is classed as cell-based. The protocol:
as §3

Assay [17] has as its target CDK9/cyclin T (Homo sapiens, UniProt P50750). Kind of assay: radiometric protein kinase assay.
Description: (§5) Buffers. Buffer A: 10 mM MgCl2, 1 mM EGTA, 1 mM DTT, 25 mM Tris-HCl pH 7.5, 50 μg heparin/mL. Buffer C: 60 mM β-glycerophosphate, 15 mM p-nitrophenylphosphate, 25 mM MOPS (pH 7.2), 15 mM EGTA, 15 mM MgCl2, 1 mM DTT, 1 mM sodium vanadate, 1 mM phenylphosphate.
(§6) Kinase activities were assayed in buffer A or C at 30°C at a final ATP concentration of 15 μmol/L. Blank values were subtracted and activities were expressed in percent of the maximal activity, i.e. in the absence of inhibitors. Controls were performed with appropriate dilutions of DMSO.
(§7) Their kinase activity was assayed in buffer A, with 1 mg histone H1/mL, in the presence of 15 μmol/L [γ-33P] ATP (3,000 Ci/mmol; 10 mCi/mL) in a final volume of 30 μL. After 30 min incubation at 30°C, the reaction was stopped by harvesting onto P81 phosphocellulose supernatant (Whatman) using a FilterMate harvester (Packard) and washing in 1% phosphoric acid. Scintillation fluid was added and the radioactivity measured in a Packard counter.
as §4
Assay [18] concerns the target CLK2 (Mus musculus, UniProt O35491). Kind of assay: radiometric protein kinase assay.
Description: as §5, §6, §7, §4
Assay [19] concerns the target CDK1/cyclin B. Kind of assay: radiometric protein kinase assay. The assay is classed as biochemical, starfish. The conditions noted are these: 15 μmol/L ATP.
Assay [20] deals with DYRK1B (Homo sapiens, UniProt Q9Y463). Kind of assay: radiometric protein kinase assay. The assay is classed as biochemical. Conditions: 15 μmol/L ATP; read-out: IC50 DYRK 1B.
Sequence of DYRK1B (Q9Y463 whole entry): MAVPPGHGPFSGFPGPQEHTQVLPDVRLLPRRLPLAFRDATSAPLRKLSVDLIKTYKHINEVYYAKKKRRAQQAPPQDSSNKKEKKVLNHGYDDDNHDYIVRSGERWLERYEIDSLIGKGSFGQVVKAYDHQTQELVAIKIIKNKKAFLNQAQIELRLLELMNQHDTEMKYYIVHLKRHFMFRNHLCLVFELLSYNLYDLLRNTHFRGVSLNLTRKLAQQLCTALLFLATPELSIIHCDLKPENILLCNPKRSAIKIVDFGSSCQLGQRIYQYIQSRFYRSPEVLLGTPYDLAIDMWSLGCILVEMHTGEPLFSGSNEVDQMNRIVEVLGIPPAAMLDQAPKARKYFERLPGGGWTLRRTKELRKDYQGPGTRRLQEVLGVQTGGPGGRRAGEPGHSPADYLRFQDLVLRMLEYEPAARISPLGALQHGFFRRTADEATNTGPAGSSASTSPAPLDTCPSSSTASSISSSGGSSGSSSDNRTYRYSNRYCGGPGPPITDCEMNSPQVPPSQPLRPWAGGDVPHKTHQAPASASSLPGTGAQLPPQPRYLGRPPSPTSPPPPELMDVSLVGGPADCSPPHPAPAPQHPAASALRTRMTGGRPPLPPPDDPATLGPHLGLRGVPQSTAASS

T3 sequence (Q00535 whole entry): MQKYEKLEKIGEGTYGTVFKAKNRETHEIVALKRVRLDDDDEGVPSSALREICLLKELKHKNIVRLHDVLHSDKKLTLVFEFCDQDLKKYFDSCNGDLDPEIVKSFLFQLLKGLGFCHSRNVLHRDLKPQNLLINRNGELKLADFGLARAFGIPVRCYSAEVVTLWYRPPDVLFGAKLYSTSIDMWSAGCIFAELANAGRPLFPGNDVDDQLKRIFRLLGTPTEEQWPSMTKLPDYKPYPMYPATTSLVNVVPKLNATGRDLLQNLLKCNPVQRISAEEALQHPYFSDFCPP
T3 sequence (Q15078 99-307 partner limits assumed): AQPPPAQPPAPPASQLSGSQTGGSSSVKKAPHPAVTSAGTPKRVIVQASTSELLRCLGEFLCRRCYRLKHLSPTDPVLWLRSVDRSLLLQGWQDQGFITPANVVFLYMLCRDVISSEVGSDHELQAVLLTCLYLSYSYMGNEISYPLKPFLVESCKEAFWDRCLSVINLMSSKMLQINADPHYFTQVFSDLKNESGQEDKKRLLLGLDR
Sequence of CLK1 (P22518 whole entry): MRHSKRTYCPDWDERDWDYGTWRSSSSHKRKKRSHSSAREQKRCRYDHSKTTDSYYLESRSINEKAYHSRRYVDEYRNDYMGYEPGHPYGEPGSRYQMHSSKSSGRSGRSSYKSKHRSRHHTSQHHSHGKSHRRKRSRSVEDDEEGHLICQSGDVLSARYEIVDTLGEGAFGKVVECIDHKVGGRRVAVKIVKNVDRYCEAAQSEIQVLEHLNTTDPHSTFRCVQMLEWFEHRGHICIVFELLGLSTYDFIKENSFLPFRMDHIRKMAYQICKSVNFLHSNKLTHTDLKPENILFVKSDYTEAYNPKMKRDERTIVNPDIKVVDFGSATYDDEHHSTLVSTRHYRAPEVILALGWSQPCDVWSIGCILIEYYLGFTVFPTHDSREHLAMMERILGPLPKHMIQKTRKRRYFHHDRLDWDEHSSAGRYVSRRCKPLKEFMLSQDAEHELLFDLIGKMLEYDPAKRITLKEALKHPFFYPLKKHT
Sequence of CLK2 (O35491 whole entry): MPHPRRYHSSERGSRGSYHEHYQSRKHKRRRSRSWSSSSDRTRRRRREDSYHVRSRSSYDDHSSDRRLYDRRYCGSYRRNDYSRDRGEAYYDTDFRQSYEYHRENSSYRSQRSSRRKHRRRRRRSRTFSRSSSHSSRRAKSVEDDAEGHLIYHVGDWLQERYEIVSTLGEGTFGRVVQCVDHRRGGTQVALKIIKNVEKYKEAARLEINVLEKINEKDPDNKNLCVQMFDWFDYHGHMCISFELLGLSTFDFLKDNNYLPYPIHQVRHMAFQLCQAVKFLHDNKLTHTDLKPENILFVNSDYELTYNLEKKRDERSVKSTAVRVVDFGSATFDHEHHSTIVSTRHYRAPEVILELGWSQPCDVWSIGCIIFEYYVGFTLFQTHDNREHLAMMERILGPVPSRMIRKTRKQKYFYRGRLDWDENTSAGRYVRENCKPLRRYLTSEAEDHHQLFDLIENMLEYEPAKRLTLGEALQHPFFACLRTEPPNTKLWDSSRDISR
Sequence of CDK9/cyclin T (P50750 whole entry): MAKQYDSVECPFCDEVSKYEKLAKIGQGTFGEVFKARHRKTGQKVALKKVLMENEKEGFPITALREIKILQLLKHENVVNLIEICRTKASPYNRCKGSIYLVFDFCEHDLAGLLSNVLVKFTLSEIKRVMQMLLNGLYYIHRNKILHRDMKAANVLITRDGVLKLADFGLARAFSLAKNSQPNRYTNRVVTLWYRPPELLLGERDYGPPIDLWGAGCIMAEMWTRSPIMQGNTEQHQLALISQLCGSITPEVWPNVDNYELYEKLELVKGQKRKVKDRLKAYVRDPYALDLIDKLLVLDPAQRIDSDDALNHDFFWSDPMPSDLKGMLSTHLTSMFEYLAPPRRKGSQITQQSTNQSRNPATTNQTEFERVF
Sequence of CDK9/cyclin T (O60563 whole entry partner): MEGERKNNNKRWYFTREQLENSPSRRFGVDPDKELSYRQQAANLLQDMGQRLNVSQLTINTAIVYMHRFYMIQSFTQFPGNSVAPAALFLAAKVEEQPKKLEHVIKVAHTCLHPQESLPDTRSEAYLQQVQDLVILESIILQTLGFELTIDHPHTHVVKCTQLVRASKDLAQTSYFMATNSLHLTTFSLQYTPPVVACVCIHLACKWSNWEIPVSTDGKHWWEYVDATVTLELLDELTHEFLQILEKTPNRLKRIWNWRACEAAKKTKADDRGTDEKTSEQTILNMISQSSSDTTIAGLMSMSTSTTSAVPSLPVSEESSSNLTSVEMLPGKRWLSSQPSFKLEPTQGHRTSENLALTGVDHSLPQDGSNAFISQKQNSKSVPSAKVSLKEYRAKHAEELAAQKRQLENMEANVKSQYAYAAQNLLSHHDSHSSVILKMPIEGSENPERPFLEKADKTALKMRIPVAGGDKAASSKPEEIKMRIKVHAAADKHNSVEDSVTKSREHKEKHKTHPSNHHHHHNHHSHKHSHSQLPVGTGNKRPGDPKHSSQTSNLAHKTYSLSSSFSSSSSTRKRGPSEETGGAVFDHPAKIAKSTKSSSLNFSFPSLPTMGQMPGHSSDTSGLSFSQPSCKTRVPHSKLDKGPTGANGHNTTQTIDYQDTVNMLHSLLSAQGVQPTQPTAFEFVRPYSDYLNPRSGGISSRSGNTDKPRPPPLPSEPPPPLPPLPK

Usually GI50 stands for the concentration that inhibits growth by half. Low readings indicate greater sensitivity of the cells, high ones lower sensitivity of the cells. Regarding `O=C1NCc2ccc3c(-c4cccc(Cl)c4)c[nH]c3c21` [8c, 3-(3-Chlorophenyl)-6,7-dihydropyrrolo[3,4-g]indol-8(1H)-one], the GI50 in [1] stood at 440 ± 100 nM; in assay [2] it was 280 ± 50 nM; in assay [3], 120 ± 10 nM; in assay [4] it was 350 ± 160 nM; in [9] it was 209 nM; in assay [10], 151 nM. Also, the concentration for 50% growth inhibition (GI50) in assay [11] stood at 407 nM; in [12], 10200 nM; in [13], 309 nM; in assay [14], 912 nM; in assay [15] it was 28800 nM; in assay [16] it was 257 nM. Moreover, the IC50 in assay [5] was greater than 10000 nM; in assay [6], greater than 10000 nM; in [7] it was 88 nM; in [8], greater than 10000 nM; in assay [17] it was greater than 10000 nM; in assay [18], 510 nM. The IC50 in assay [19] and in assay [20] was greater than 10000 nM in each case.
